Source: US3987055A, “Azasteroids compounds and derivatives” (The Board of Regents for the Oklahoma Agricultural & …, priority 1974, dated 1976)
Where “and” joins values, the source holds several entries; their conditions need not be identical. Identical values can stand only once. Entries after “also recorded” stand apart in the source; their conditions may differ.

Columns and labels:
[1] = system: B. subtilis W23; test: antimicrobial activity in combination with selected antibiotics; assay type: cell-based
Description: Several antibiotics act at the cell surface. The antimicrobial activity of the hydroxybenzindazole in combination with selected antibiotics was measured.
Both Polymyxin (Pfizer, Inc.) and Circulin (Upjohn Co.) are surface active compounds thought to cause disorganization of the cell membrane leading to a loss of intracellular components. The enhanced antimicrobial activity observed with the combination of hydroxybenzindazole and antibiotics denotes a more pronounced distortion in the cell surface. Thus, much lower concentrations of the compounds can be used in medicinal applications providing an opportunity for toxic compounds to have greater medicinal applicability and use.
Failure of the mixture of hydroxybenzindazole and chloramphenicol to show an enhanced inhibition of growth could be correlated with the internal site of action of chloramphenicol, which is blockage of the binding of the 30s and 50s ribosomal subunits.

[2] = system: P. fluorescens NND; test: lysis of cells of P. fluorescens NND; assay type: cell-based, Pseudomonas fluorescens NND
Description: The increased lytic rate was not observed when the benzindazole was added after the cells had reached the maximum stationary phase (10 hours); thus, the compounds must be present during active growth for the cells to show the lytic response. […] This is extremely important in controlling or destroying growth of undesirable cells since if the cells rupture they cannot possibly grow and divide at any future time.

[3] = system: cells; test: uptake or incorporation of L-serine-3-14C or uracil-2-14C; assay type: cell-based; conditions: 60 μg/ml
Text: (§1) Thus the compound can be used to destroy undesirable cells without damaging normal cells.

[4] = system: osmoplasts (osmotically sensitive cells) of B. subtilis W23; test: lysis of osmoplasts of B. subtilis W23; assay type: cell-based; conditions: stabilized in 0.35 M sucrose
Text: as §1

[5] = system: Escherichia coli B; test: inhibition of initiation of growth of Escherichia coli B; assay type: cell-based; conditions: E. coli B
Text: (§2) The hydroxybenzindazole (compound 2) delayed (inhibited) the initiation of growth of selected unrelated bacteria when incorporated in the growth medium. The inhibition was dependent on the concentration of the test compound and the nature of the organism. […] Pseudomonas fluorescens NND was not sensitive to the hydroxybenzindazole in the concentrations tested.

[6] = effects on testis function: body, testis and seminal vesicle weight; assay type: in vivo, mice (ICR-Swiss adult male); conditions: average; 0.2 mg per day s.c., 10 days
Description: The compounds as shown in Table 7 were dissolved in a minimal amount of ethanol and diluted in sesame oil (1 mg/ml). After dilution, samples were stored at 5° C in the dark and flushed with N2 every 24 hours. The compounds were injected subcutaneously into adult male mice for a period of 10 days. Each mouse injected received a total dose of 2 mg over the 10 day period or 0.2 mg per day. The mice were random bred males of the ICR-Swiss strain and were used in the study when they reached 75±2 days of age. Mice were maintained in air-conditioned and light-controlled (14 hour light/24 hour) animal quarters and provided with lab food and water ad libitum. Animals were necropsied 24 hours after the last injection. Testes and seminal vesicles were excised, trimmed of adhering tissue and weighed fresh at the nearest one-tenth milligram.

[7] = system: Bacillus subtilis W23; test: inhibition of growth of Bacillus subtilis W23 in growth medium; assay type: cell-based
Description: as §2
The influence of cell mass on the antimicrobial potential of the hydroxybenzindazole was determined using B. subtilis W23. […] Thus, a critical number of molecules must react with the cell to produce inhibition. Experiments were conducted to determine if Mg^+^+, which is an important component of cell membranes, affected the inhibition. Cells of B. subtilis W23 were exposed to 10^-^3 M MgCl2 simultaneously with the test compound or for as long as 15 minutes prior to addition of the hydroxybenzindazole.

[8] = system: cells; test: binding or adsorption to the cell; conditions: incubated with 20 μg
Text: as §1

[9] = system: rat testis tubules; test: glucose oxidation (glucose-U-14C) by rat testis tubules in vitro; assay type: cell-based
Description: (§3) For these investigations the compounds were diluted in a minimal amount of ethanol and further diluted in saline (0.85%) so that the final concentration was 1 mg/ml. The compounds were placed in solution and gassed under N2 and stored at 5° C until used 2 days later for the in vitro incubation studies. Details of the in vitro incubation procedures may be found in Endocrinology 89:791-800 (1971).
The effects of these compounds on glucose oxidation by testis tubules was examined by incubating about 200 mg of teased testis tubules from mature rats in a 25 ml Erlenmeyer flask containing 3 ml of Krebs Ringer bicarbonate buffer (pH 7.4), D-glucose-U-^14 C (0.5 μCi; 10mM) and 0.25 ml of the azasteroid (1 mg/ml) to be tested. The flasks were incubated for 2 hours at 33° C under 95% O2 :5% CO2. The reaction was terminated by adding 0.25 ml of 5 N H2 SO4. Carbon dioxide was trapped in 0.25 ml of hydroxide of Hyamine. The radioactivity present in the Hyamine was determined by liquid scintillation spectrometry. This table includes a detailed summary of the results obtained and an average for each compound. […] Thus, the compounds have potential for antifertility activity in the control of wild rodent populations and possibly stray animals such as dogs and cats.
CPM = counts per minute. Glucose-U-^14 C activity was 0.5 millicurie.
All compounds were tested in a concentration of 250 mg per flask.

[10] = system: Pseudomonas fluorescens NND; test: inhibition of growth of Pseudomonas fluorescens NND; assay type: cell-based; conditions: concentrations tested; P. fluorescens NND; listed as hydroxybenzindazole
Text: as §2

[11] = system: rat testis tubules; test: lysine-U-14C incorporation into protein by rat testis tubules in vitro; assay type: cell-based
Description: as §3
The effects of the compounds on the incorporation of lysine -U-^14 C into trichloroacetic (TCA) precipitable protein of rat testes was investigated by incubating about 200 mg of teased testis tubules from mature rats in a 25 ml Erlenmeyer flask containing 3 ml of Krebs Ringer bicarbonate buffer (pH 7.4), L-lysine-U-^14 C (0.5 μCi; 0.1mM), glucose (10 mM) and 0.25 ml of the azasteroid to be tested. The flasks were incubated for 1 hour at 33° C under 95% O2 : 5% CO2 and the TCA precipitable protein was isolated and an aliquot used to measure radioactivity.
CPM = counts per minute. All compounds were tested in a concentration of […]

[12] = individual flask, 250 mg per flask (so in the source), 2 hours, 33° C
[13] = individual flask, 250 mg per flask (so in the source), 1 hour, 33° C

**Q.** With `Oc1ccc2c(c1)CCc1cn[nH]c1-2` [Compound 2, 4,5-Dihydro-1H-benz[g]indazol-7-ol] as the compound, how does the “inhibition of growth, tested separately” value ([1]; alone, B. subtilis W23) read?
**A.** Its value is “very slight inhibition of growth”.

**Q.** And the “enhanced inhibition in combination with chloramphenicol” value ([1]; with chloramphenicol)?
**A.** Its value is “enhanced inhibition was not observed”.

**Q.** And the “inhibition of growth in combination with penicillin” value ([1]; with penicillin, B. subtilis W23)?
**A.** The value was “pronounced inhibition”.

**Q.** What about the “dependence of extent of lysis on concentration” value ([2]; P. fluorescens NND) of the same compound?
**A.** The value was “proportional to the benzindazole concentration”.

**Q.** What about the “increased lytic rate when added after maximum stationary phase” value ([2]; added after 10 hours) of the same compound?
**A.** Its value is “not observed”.

**Q.** And the cell population lysed ([2]; cells grown in presence of compound)?
**A.** Its cell population lysed is “approximately 95%”.

**Q.** What about the “inhibition of uptake or incorporation of L-serine-3-14C or uracil-2-14C” value [3] of the same compound?
**A.** The value was “did not inhibit uptake or incorporation”.

**Q.** What about the lysis of osmoplasts [4] of the same compound?
**A.** Its lysis of osmoplasts is “did not produce lysis”.

**Q.** What about the “growth inhibition at lower concentration” value ([5]; 46 μg/ml) of the same compound?
**A.** The value was “only slight inhibition”.

**Q.** And the “increased lag in the initiation of growth” value ([5]; 86 μg/ml)?
**A.** The value was “approximately 3 hours”.

**Q.** And the “Body Weight” value [6]?
**A.** The value was 35.7 g.

**Q.** What about the “Mg Testes Per g Body Wt.” value [6] of the same compound?
**A.** Its value is 6.73 Mg per g.

**Q.** What about the “Seminal Vesicle weight” value [6] of the same compound?
**A.** Its value is 87.3 mg.

**Q.** What about the “Testes Paired weight” value [6] of the same compound?
**A.** Its value is 242.0 mg.

**Q.** What about the “growth inhibition at lower concentration” value ([7]; 46 μg/ml, B. subtilis W23) of the same compound?
**A.** Its value is “only slight inhibition”.

**Q.** What about the “increased lag in the initiation of growth” value ([7]; 86 μg/ml, B. subtilis W23) of the same compound?
**A.** The value was “approximately 3 hours”.

**Q.** And the “influence of Mg++ on the inhibition” value ([7]; 10^-3 M MgCl2, simultaneously or up to 15 minutes prior)?
**A.** Its value is “did not influence the inhibition”.

**Q.** What about the “influence of cell mass on extent of inhibition” value ([7]; B. subtilis W23, increasing inoculum cell mass) of the same compound?
**A.** The value was “the extent of inhibition was diminished as the cell mass of the inoculum was increased”.

**Q.** What about the “amount bound or adsorbed to the cell” value [8] of the same compound?
**A.** Its value is “approximately 1 μg”.

**Q.** What about the AVERAGE glucose oxidation ([9]; average of flasks) of the same compound?
**A.** Its AVERAGE glucose oxidation is 3,756 CPM/100 mg TISSUE.

**Q.** And the “depression of glucose oxidation in vitro” value ([9]; in words)?
**A.** Its value is “depressed glucose oxidation in vitro more than compounds 4 c and 11b”.

**Q.** What about the “GLUCOSE OXIDATION per 100 mg” value [9, 12] of the same compound?
**A.** Its value is 3,354 CPM/100 mg and 4,159 CPM/100 mg.

**Q.** And the “GLUCOSE OXIDATION per flask” value [9, 12]?
**A.** Its value is 6,876 CPM/FLASK and 8,557 CPM/FLASK.

**Q.** And the “% DEVIATION FROM CONTROL, glucose oxidation” value ([9]; versus saline, 120 min)?
**A.** Its value is -63.6%.

**Q.** And the “sensitivity / influence on growth” value [10]?
**A.** Its value is “not sensitive; also recorded: did not influence the growth”.

**Q.** What about the “AVERAGE OF TWO FLASK lysine incorporation” value ([11]; average of two flasks) of the same compound?
**A.** The value was 814 CPM/100 mg tissue.

**Q.** And the “protein synthesis by teased testis tubules” value ([11]; in words)?
**A.** The value was “depress protein synthesis”.

**Q.** What about the “lysine incorporation into protein per 100 mg” value [11, 13] of the same compound?
**A.** Its value is 1,000 CPM/100 mg and 629 CPM/100 mg.

**Q.** And the “lysine incorporation into protein per flask” value [11, 13]?
**A.** Its value is 2,000 CPM/FLASK and 1,200 CPM/FLASK.
